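Interpolation was linear, between the two tested concentrations surrounding the appropriate level; five concentrations were tested over 48 hours in 96-well plates. Here, GI50 denotes the concentration required for 50% inhibition of growth.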 Active and inactive are the calls of the source. No stated cut-off is given here; in the data, active = GI50 up to about 1.1 µM and inactive = higher.
Columns and labels:
Assay in all cases: inhibition of tumour cell growth, NCI panel, 48 h
M14 = test system: M14
HCT-15 = test system: HCT-15
SW-620 = test system: SW-620
EKVX = test system: EKVX
OVCAR-8 = test system: OVCAR-8
IGROV-1 = test system: IGROV-1
LOX IMVI = test system: LOX IMVI
HOP-62 = test system: HOP-62
OVCAR-3 = test system: OVCAR-3
SNB-19 = test system: SNB-19
UACC-62 = test system: UACC-62
NCI-H226 = test system: NCI-H226
NCI-H23 = test system: NCI-H23
SNB-75 = test system: SNB-75
SK-OV-3 = test system: SK-OV-3
SF-268 = test system: SF-268
RXF 393 = test system: RXF 393

SMILES | GI50 (M14) | GI50 (HCT-15) [µM] | GI50 (SW-620) | GI50 (EKVX) | GI50 (OVCAR-8) | GI50 (IGROV-1) | GI50 (LOX IMVI) | GI50 (HOP-62) | GI50 (OVCAR-3) | GI50 (SNB-19) | GI50 (UACC-62) | GI50 (NCI-H226) | GI50 (NCI-H23) | GI50 (SNB-75) | GI50 (SK-OV-3) | GI50 (SF-268) | GI50 (RXF 393)
CCN(CC)CCN(C)CC(C)(C)C(=O)/C=C/c1ccccc1 | 13 µM (inactive) | 12.5 | 11.5 µM (inactive) | 13.1 µM (inactive) | 15.8 µM (inactive) | 16.7 µM (inactive) | 11 µM (inactive) | 22.1 µM (inactive) | 13.5 µM (inactive) | 15.1 µM (inactive) | 12.7 µM (inactive) | 17.1 µM (inactive) | 12.6 µM (inactive) | 4.36 µM (inactive) | 12.6 µM (inactive) | 12.6 µM (inactive) | 
COc1ccc(C(=O)O)c(Cc2ccc3ccccc3c2)c1 | > 100 µM (inactive) |  | > 100 µM (inactive) | > 100 µM (inactive) | > 100 µM (inactive) | > 100 µM (inactive) | > 100 µM (inactive) | > 100 µM (inactive) | > 100 µM (inactive) | > 100 µM (inactive) | > 100 µM (inactive) | > 100 µM (inactive) | > 100 µM (inactive) | > 100 µM (inactive) | > 100 µM (inactive) | > 100 µM (inactive) | > 100 µM (inactive)
COC(=O)[C@]1(C)CCC[C@]2(C)C3CC4OOC3(C=C4C(C)(C)O)CCC21 (some centres undefined) | 31 µM (inactive) | 37.8 | 36.1 µM (inactive) | 75.2 µM (inactive) | 34.6 µM (inactive) | 72.4 µM (inactive) | 36.8 µM (inactive) | > 100 µM (inactive) | > 100 µM (inactive) | > 100 µM (inactive) | 29.2 µM (inactive) | 31.1 µM (inactive) | 94 µM (inactive) |  | 76.7 µM (inactive) | 60.1 µM (inactive) | 
O=c1c2cc(Br)ccc2nc(-c2ccccc2)n1NCC1(O)OCC(O)C(O)C1O (centres undefined) | > 100 µM (inactive) | > 100 | > 100 µM (inactive) | > 100 µM (inactive) | > 100 µM (inactive) |  | > 100 µM (inactive) | > 100 µM (inactive) | 81.8 µM (inactive) | > 100 µM (inactive) | > 100 µM (inactive) | > 100 µM (inactive) | > 100 µM (inactive) | > 100 µM (inactive) | > 100 µM (inactive) | > 100 µM (inactive) | > 100 µM (inactive)
OCC(O)C(OC1OC(CO)C(O)C(O)C1O)c1nn(-c2ccccc2)c2nc3cc(Cl)c(Cl)cc3cc12 (centres undefined) | > 100 µM (inactive) | > 100 |  | > 100 µM (inactive) | > 100 µM (inactive) |  | > 100 µM (inactive) | > 100 µM (inactive) | > 100 µM (inactive) | > 100 µM (inactive) | > 100 µM (inactive) |  | > 100 µM (inactive) | > 100 µM (inactive) | > 100 µM (inactive) | > 100 µM (inactive) | > 100 µM (inactive)
N#Cc1ccccc1NC(=O)/C(=N\N)C(C(=O)c1ccncc1)C1OC(=O)c2ccccc21 (centres undefined) | > 100 µM (inactive) | > 100 | > 100 µM (inactive) | > 100 µM (inactive) | > 100 µM (inactive) | > 100 µM (inactive) | > 100 µM (inactive) | > 100 µM (inactive) | > 100 µM (inactive) | > 100 µM (inactive) | > 100 µM (inactive) | > 100 µM (inactive) | > 100 µM (inactive) |  | > 100 µM (inactive) | > 100 µM (inactive) | 
CCC(/C(=N\Nc1c(Cl)cc(Cl)cc1Cl)c1ccccc1)n1ccnc1C (centres undefined) | 13.3 µM (inactive) | 10.5 | 15.2 µM (inactive) | 17.3 µM (inactive) | 12.9 µM (inactive) | 11 µM (inactive) | 12.2 µM (inactive) |  | 5.82 µM (inactive) | 14.4 µM (inactive) | 17.5 µM (inactive) | 15.2 µM (inactive) | 10.7 µM (inactive) | 14.6 µM (inactive) | 18.4 µM (inactive) | 17.2 µM (inactive) | > 10 µM (inactive)
COc1ccc(/C(=C\c2cc(OC)c(OC)c(OC)c2)C(=O)O)cc1 | 26.6 µM (inactive) | 32.1 | 35 µM (inactive) | 57 µM (inactive) | 33.5 µM (inactive) | 48.4 µM (inactive) | 27.5 µM (inactive) | 37.1 µM (inactive) | 32 µM (inactive) | 54.2 µM (inactive) | 37 µM (inactive) | 28.1 µM (inactive) |  | 25.6 µM (inactive) |  | 51.6 µM (inactive) | 18.8 µM (inactive)
O=C1OCC2C1C1c3ccccc3C(O)c3ccccc3C21 (centres undefined) | > 100 µM (inactive) | > 100 | > 100 µM (inactive) | > 100 µM (inactive) | > 100 µM (inactive) | > 100 µM (inactive) | > 100 µM (inactive) | > 100 µM (inactive) | > 100 µM (inactive) |  | > 100 µM (inactive) | > 100 µM (inactive) | > 100 µM (inactive) | > 100 µM (inactive) | > 100 µM (inactive) | > 100 µM (inactive) | > 100 µM (inactive)
